Consider four compounds from publication PMC9967700, “Metabolism-Guided Optimization of Tryptophanol-Derived Isoindolinone p53 Activators” (Pharmaceuticals, 2023).

Data set [1] deals with HCT116 p53+/+ cells. The data set can be described thus: Antiproliferative activity, sulforhodamine B (SRB) assay. Format: cell-based, human. The conditions noted are these: for GI50: Homo sapiens, HCT-116, 48 h treatment, read-out: HCT116 p53+/+ GI50; for S.I. (selectivity index): HCT116 p53−/− versus HCT116 p53+/+. How it is done:
(§1) Tumor cells were cultured in RPMI-1640 with UltraGlutamine (Lonza, VWR), supplemented with 10% fetal bovine serum (FBS; Gibco, Alfagene) and maintained in a humidified incubator at 37 °C with 5% CO2. Cell lines were seeded in 96-well plates at the cells/well density of 5.0 × 10^3.
(The SRB assay estimates cell density from bound dye.)

For data set [2], the system named is HCT116 p53−/− cells. Described as above. Format: cell-based, human. The conditions noted are these: Homo sapiens, HCT-116, 48 h, 48 h treatment, read-out: HCT116 p53−/− GI50. How it is done:
as §1

A short description of data set [3]: In vitro reactions with bionucleophiles. How it is done: To a solution of compound 13d in acetonitrile (1.00 eq., 10.1 mg in 400 µL, 5.04 × 10^−2 M) reduced glutathione (4.00 eq. 25.2 mg, 82.00 µmol) dissolved in 400 µL of ABIC buffer 50 mM pH 7.4 was added. The reaction mixture was incubated for 24 h at 37 °C and monitored by LC-ESI-HRMS/MS.
To a solution of compound 13k in acetonitrile (1.00 eq., 4.3 mg in 200 µL, 3.92 × 10^−2 M) reduced glutathione (4.00 eq. 9.64 mg, 31.36 µmol) dissolved in 200 µL of ABIC buffer 50 mM pH 7.4 was added. The reaction mixture was incubated for 24 h at 37 °C and monitored by LC-ESI-HRMS/MS.
SLMP53-1_M5 (1.00 eq., 2.1 mg, dissolved in 150 µL of ACN) was added to a L-lysine (2 eq.) solution in 50 mM ABIC buffer pH 7.4. Following incubation for 24 h at 37 °C a solution of cyanoborohydride (2 eq) was added. The mixture was analyzed by LC-ESI(+)-HRMS/MS.

A short description of data set [4]: Human plasma incubations (stability). In kind it is in vitro ADME. Particulars: 37 °C, 40 μM. How it is done: Human plasma incubations were performed in duplicate, at 37 °C, by standard methodology. Specifically, incubations contained 40 μM of the test compound for a final volume of 1 mL. The mixtures were incubated for a total time of 24 h, and aliquots following 0, 30, 60, 120, 180 min and 24 h and quenched with a cold solution of reserpine 0.1 mM in acetonitrile. Following centrifugation (10,000 rpm, 10 min, RT), the clear supernatants were collected and analyzed by LC-ESI(+)-MS/MS. Additional control assays were conducted using PBS pH 7.4 instead of plasma solution and using procaine as a positive control.

Data set [5] can be described thus: Human liver microsomes incubations: half-life and intrinsic clearance. In kind it is in vitro ADME. Particulars: for Intrinsic Clearance / clearance classification: HLM; for Intrinsic Clearance: calculated from half-life (Equation 2); for clearance classification: classification after ref 32; for half-life at 10 μM: human, liver microsomes, pH 7.4, HLM 1 mg protein/mL, NADPH, 37 °C. How it is done:
(§2) For the generation of Phase I metabolites: tested compounds, at a 10 μM concentration (1 μL of 5 mM DMSO stock solution), were incubated with HLM (1 mg protein/mL), Vivid® regenerating system (5 μL) and NADPH (1mM) in ABIC 50 mM buffer pH 7.4, for a total incubation volume of 500 μL. Incubations were run in duplicate, at 37 °C. Aliquots were collected at 0, 5, 10, 20, 30, 40, 50, 60, 75, 90, 120, 180 min and reactions were stopped by adding and ice-cold solution of reserpine (2.5 μM) in acetonitrile. Additional aliquots were taken at 0 and 120 min and subsequently treated with L-lysine (100 µM) and sodium cyanoborohydride (10 µM) or glutathione (100 µM). Following centrifugation (10,000 rpm, 15 min, RT), the clear supernatants were collected and analyzed LC-ESI-HRMS/MS. Control incubations were conducted in the same conditions: (1) using DMSO as negative control, in absence of the test drug; (2) using heat-denatured HLM (90 °C, 15 min); (3) using nevirapine, as a positive control, instead of the tested compound; and (4) in absence of NADPH co-factor.
The in vitro depletion half-lives of tested compounds t1/2 were calculated using Equation (1), assuming that testing compounds follow a first-order kinetic trend. The “slope” was determined from linear fitting of the natural logarithm of the concentration of drug remaining plotted against time:(1) t1/2=ln2/slope
The intrinsic clearance in HLM (CLint, HLM) was calculated using Equation (2):(2) CLint HLM =ln2/ t1/2 x mL incubation/mg microsomes x 45 mg microsomes/g liver x 26 g liver/Kg b.w.

Data set [6] can be described thus: Glucuronidation in alamethicin induced-HLM with NADPH and UDPGA. Format: in vitro ADME, human. The conditions noted are these: NADPH, UDPGA, LC-ESI(-)-HRMS/MS. How it is done: For the generation of glucuronidation metabolites: HLM were preincubated for 15 min with alamethicin (25 µg/mL). Incubations were then run in duplicate at 37 °C, using the following conditions: test compounds at a concentration of 25 µM (1 μL of DMSO stock solution 5 mM), HLM (1 mg/mL, 10 μL), NADPH (5 mM), MgCl2 (2 mM), UDPGA (5 mM) for a final volume of 200 μL, in 50 mM ABIC buffer pH 7.4. Control incubations were conducted in the same conditions using: (1) DMSO as negative control, in absence of the test compound; (2) heat-denatured HLM (90 °C, 15 min); and (3) in absence of UDPGA co-factor. Aliquots (50 μL) were collected at 0 and 2 h and then quenched with 50 μL of a cold 2.5 μM reserpine solution in acetonitrile. All the samples were vortexed and centrifuged for 15 min at 10,000 rpm. The supernatants were collected and stored at −20 °C until further analysis by LC-ESI-HRMS/MS.

Data set [7] in a line: Bioactivation: S9 rat liver fraction and HLM incubations in the presence of glutathione. Format: in vitro ADME, human. How it is done:
as §2, with “Control incubations were conducted in the same conditions: (1) using DMSO as negative control, in absence of the test drug; (2) using heat-denatured HLM (90 °C, 15 min); (3) using nevirapine, as a positive control, instead of the tested compound; and (4) in absence of NADPH co-factor.” left out
Tested compounds at a 10 μM concentration (1 μL of 5 mM DMSO stock solution) were incubated with rat liver S9 fraction (2 mg protein/mL), Vivid® regenerating system (2 μL) and NADPH (1mM) in ABIC 50 mM buffer pH 7.4, for a total incubation volume of 500 μL. […] Following centrifugation (10,000 rpm, 15 min, RT) the clear supernatants were collected and analyzed LC-ESI-HRMS/MS. […]

In data set [8] the test system is HCT116 p53+/+ cells. On the set-up: method as in PMID 26735173. The conditions noted are these: 48 h treatment; cited from earlier work.
In data set [9] the test system is HCT116 p53−/− cells. Also noted: method as in PMID 26735173. Particulars: 48 h treatment; cited from earlier work.
On the set-up of data set [10]: method as in PMID 26735173. Particulars: cited from earlier work.
The mark [11] stands for this setting: mean ± SEM of 5 independent experiments.
Setting [12] is: mean ± SEM of 3–5 independent experiments.

Each structure is given as a SMILES string. Like-named read-outs stand apart in the source and are kept apart here.

With `C[C@]12OC[C@H](CC(=O)c3ccccc3NC=O)N1C(=O)c1ccccc12` [SLMP53-1_M5, N-(2-(2-((3S,9bR)-9b-methyl-5-oxo-2,3,5,9b-tetrahydrooxazolo[2,3-a]isoindol-3-yl)acetyl)phenyl)formamide], the GI50 was 48.8 ± 2.3 µM in data set [1] (setting [11]) and 44 ± 1.8 µM in [2] (setting [11]). Also, the “reaction products upon L-lysine incubation” value in [3] (followed by reductive stabilization, 24 h, 37 °C) is “no reaction products were obtained”.

The term half-life denotes the time needed for the level to fall by half in the phase considered. Lower therefore signals rapid decline. With `Cn1cc(C[C@H]2CO[C@]3(c4ccccc4)c4ccccc4C(=O)N23)c2ccccc21` [SLMP53-2], in [1], the “S.I. (selectivity index)” value stood at 2.1. The GI50 in data set [1] (setting [12]) was 8.4 ± 1.1 µM. In data set [2] (setting [12]), the GI50 amounted to 17.7 ± 2.3 µM. Also, the “stability towards plasmatic enzymes” value in [4] is given as “stable towards plasmatic enzymes for 3 h”. Further, in [5] (listed as SLMP53-2 (7)), the “Intrinsic Clearance” value is 2.75 mL/min/kg. In addition, in data set [5], the clearance classification entry was “low clearance” and the half-life at 10 μM was determined as 2.45 h. For the same compound, in data set [6], the “Phase II (glucuronic acid conjugate) metabolites identified” value is given as “no Phase II metabolites were identified”.

Consider `CC12OCC(Cc3c[nH]c4ccccc34)N1C(=O)c1ccccc12` (stereo not shown) [SLMP53-1], for which, in data set [4], the “stability towards plasmatic enzymes” value is listed as “stable towards plasmatic enzymes for 3 h”. In data set [5], the “Intrinsic Clearance” value is 3.67 mL/min/kg, the clearance classification entry was “low clearance” and the half-life at 10 μM was determined as 2.3 h. The “Phase II (glucuronic acid conjugate) metabolites identified” value in [6] is “two glucuronic acid conjugates were identified”. Also, the GSH adducts identified entry in [7] (S9 rat liver fraction and HLM in the presence of GSH) is given as “Two GSH adducts were identified”. Further, in data set [8], the GI50 was 15.6 ± 1.6 µM. For the same compound, the GI50 in data set [9] was 34 ± 3.5 µM. In addition, the “toxicity alerts in vivo” value in [10] is “not associated with toxicity alerts”.

`O=C1c2ccccc2[C@@]2(c3ccccc3)OC[C@H](Cc3c(Br)n(Cc4ccccc4)c4ccccc34)N12` [Compound 13k, (3S, 9bR)-3-((1-benzyl-2-bromo-1H-indol-3-yl)methyl)-9b-phenyl-2,3-dihydrooxazolo[2,3-a]isoindol-5(9bH)-one]: in [1], the “S.I. (selectivity index)” value is given as 3.8. In addition, the GI50 in data set [1] (setting [12]) came out at 8.09 ± 2.01 µM. Also, the GI50 in data set [2] (setting [12]) turned out to be 30.5 ± 2.1 µM. For the same compound, in [5], the “Intrinsic Clearance” value was 3.4 mL/min/kg, the clearance classification result is “low clearance” and the half-life at 10 μM came out at 2.45 h. Besides, in [7] (S9 rat liver fraction incubation in the presence of GSH), the “GSH adducts stemming from the bioactivation of Phase I metabolites” value is given as “no adducts stemming from the bioactivation of Phase I metabolites were identified”. Further, the “products of addition of GSH with concomitant loss of bromine” value in data set [3] (with or without enzymatic conditions (S9 rat liver incubations)) is “no products compatible with the addition of GSH, and the concomitant loss of bromine, were detected”.
